Five compounds from patent US20230414588A1, “COMPOSITIONS AND METHODS FOR TREATING PATIENTS WITH AMYOTROPHIC LATERAL SCLEROSIS (ALS)” (CURASEN THERAPEUTICS, INC., priority 2022, published 2023) can be followed below.

Series [1] is described as follows: Cerebral blood flow / cerebral perfusion by MRI-ASL after clenbuterol (with or without nadolol) or pindolol. The conditions noted are these: for cerebral blood flow measured by MRI-ASL (FIG. 2): healthy volunteers, single dose, dose not stated in legend.
The conditions of series [2]: 80 μg clenbuterol alone, single dose, patients.
Series [3] can be described thus: Visual verbal learning test (VVLT). The format is in vivo, human. To be noted: single dose; crossover study with placebo. The procedure:
The visual verbal learning test (VVLT) is a test for learning and memory (de Haas 2009). Subjects are presented 30 words on a screen, one at a time, for 1 second with a 1-second interval between words over a total of […]. This is repeated in 3 trials. After each trial, subjects are asked to recall as many words as they can. After the third trial, there is a delay of 2.5 hours and subjects are then tested once for delayed recall. […] The effect for clenbuterol is an improvement in approximately 1.5 to 2 correctly recalled words, which is clinically meaningful. Since this was a crossover study, everyone who completed Part A was dosed with the 3 agents plus placebo.

Series [4] is described as follows: Immediate word recall test (CANTAB), crossover study of clenbuterol with 1 mg nadolol vs placebo. The series is classed as in vivo, human. To be noted: 80 μg clenbuterol with 1 mg nadolol once daily 14 days vs placebo; patients with neurodegenerative disorders. The text has this:
The immediate word recall test measures the ability to encode and subsequently retrieve verbal information. Eighteen (18) words are presented, and subjects are subsequently asked to recall them; this is repeated 2 times.

Series [5] in a line: Adaptive tracking test (visuomotor coordination and vigilance). The format is in vivo, human. To be noted: single dose 160 μg clenbuterol. The text has this: Adaptive tracking measures visuomotor coordination and vigilance. In this test, the subject uses a joystick to move a small dot so that it stays within a continuously moving circle on a computer screen (Boland 1984). During the test, the speed of the circle is adjusted in response to the subject's ability to keep the dot in the circle, ensuring that the test is adapted to the individual subject. […] The improvement shown by subjects is in the same range as that seen with subjects treated with the acetylcholinesterase inhibitor donepezil, which is in clinical use for the treatment of mild to moderate AD (Groeneveld 2016).

Series [6] can be described thus: Facial Expression Recognition Task (FERT), crossover study of clenbuterol with 1 mg nadolol vs placebo. The format is in vivo, human. To be noted: clenbuterol co-administered with low-dose nadolol vs placebo; patients. The text has this: The Facial Expression Recognition Task (FERT) assesses the recognition of facial emotions. […] Different intensity levels of each emotion are presented, which increases the ambiguity of the facial expression and the sensitivity of the task.

Series [7] in a line: CANTAB cognition battery, Cohort D2 (Compound 03-5 with 3 mg nadolol). The series is classed as in vivo, human. The procedure: (§1) In Cohort D2, 8 healthy volunteers aged 55-75 years were admitted on Day −1 for a 5-day confinement period at the research facility. During this confinement, subjects received escalating doses of open label Compound 03-5 (1-10 mg) once-daily from Day 1 through Day 3 2 hours after pre-administration of open-label nadolol (3 mg) one each for the 3 dosing days according to the schematic in FIG. 17. Subjects remained in-residency until all study procedures are completed on Day 4.
Compound 03-5 dose administration. Compound 03-5 was administered as escalating doses on Day 1 (1 mg), Day 2 (3 mg) and Day 3 (10 mg). CANTAB was conducted twice in all subjects on the day prior to start of dosing (Day −1) to familiarize subjects with the platform, and prior to dosing and approximately 3 hours after Compound 03-5 administration on Days 1, 2, and 3.

The nature of series [8]: Peripheral effects (heart rate by ECG, potassium, glucose) of Compound 03-5 with or without nadolol in healthy volunteers. The series is classed as in vivo, human. On the procedure:
Healthy volunteers were enrolled into 2 cohorts in a study to undertake within-subject dose titration of Compound 03-5 and/or nadolol in order to explore doses/dose combinations that mitigate peripheral effects of Compound 03-5, e.g. on heart rate, while preserving possible central effects of Compound 03-5 on cerebral perfusion and pupillary light reflex.
Eight healthy subjects aged 18-50 years were enrolled into Cohort D1 and received escalating doses of Compound 03-5 (3-12 mg) administered once daily 2 hours follow pre-administration of nadolol (1-40 mg). On all dosing days, study drug(s) were administered orally after an overnight fast of at least 8 hours.
as §1

Series [9] can be described thus: Cerebral blood flow after a single dose of Compound 03-5 with or without nadolol. The series is classed as in vivo, human. The conditions noted are these: single dose Compound 03-5 in the absence or presence of 3 mg nadolol. The text has this: Data are plotted as mean (±SEM) percent change in cerebral blood flow from baseline in brain regions of interest for movement (the precentral gyrus) and mood, anhedonia and cognition (hippocampus, thalamus, amygdala).

[10] abbreviates: monotherapy Compound 03-5 0.3-6 mg, healthy volunteers.

Entries after “also recorded” stand apart in the source; their conditions may differ.

Consider `CC(C)(C)NCC(O)c1cc(Cl)c(N)c(Cl)c1` (centres unmarked) [clenbuterol], for which the “cerebral perfusion increase as measured by CBF” value in series [1] (clenbuterol 40 μg) is on record as “minimal increase”. Further, in series [1] (clenbuterol 80 and 160 μg), the “improvements in perfusion in brain areas relevant to neurodegenerative disorders” value is about 25% and the “increase in cerebral perfusion, precentral gyrus” value is given as 20-40%. Moreover, the “cerebral perfusion increase as measured by CBF” value in series [1] (clenbuterol doses below 30 μg) was “do not produce significant cerebral perfusion increases”. The “cerebral blood flow measured by MRI-ASL (FIG. 2)” value in series [1] is “increases”. The “cerebral blood flow from the baseline” value in [1] (patients, single dose clenbuterol 30 to 160 μg and/or nadolol 5 mg, tracked 3 days) is “robust global increase”. Moreover, the “increase in hippocampal perfusion, average” value in series [1] (single dose 80 μg clenbuterol, 6 healthy subjects, ROI hippocampus) was 25%. The “cerebral blood flow (CBF) / cerebral perfusion relative to baseline” value in series [1] (single dose clenbuterol 160 μg) was “global increases; also recorded: robust global increase; also recorded: robust, global increase”. Also, the “cerebral blood flow (CBF) relative to baseline” value in [1] (single dose clenbuterol 160 μg with nadolol 5 mg) is recorded as “global increases; also recorded: robust global increase”. Also, the “cerebral blood flow (CBF) relative to baseline” value in series [1] (single dose clenbuterol 20 to 160 μg, tracked 3 days) was “robust global increase”. Moreover, in series [2], the “glucose in the blood, change from baseline” value is “increases”; the “heart rate, change from baseline” value is recorded as “increases”; the “potassium in the blood, change from baseline” value is “decreases”. For the same compound, the “effect on VVLT / number of words recalled correctly” value in [3] is “improvements in cognition; also recorded: positive effects”. Moreover, the “number of words correctly recalled, immediate verbal recall” value in series [4] is reported as “statistically significant increase”. Moreover, in [5], the “performance in adaptive tracking (percent time dot kept within moving circle)” value is on record as “improved performance; also recorded: improves”. Besides, in series [5] (healthy subjects, preliminary data), the “cognition as measured by adaptive tracking and word recall” value is given as “improves cognition”. Further, in series [6], the “accuracy of correctly identifying happy facial expressions (FERT)” value is on record as “statistically significant increase”.

As to `CC(C)(C)NCC(O)COc1cccc2c1CC(O)C(O)C2` (centres unmarked) [nadolol], the “effect of nadolol on pro-cognitive central effects of the β2-AR agonist” value in series [7] (low dose nadolol 3 mg) is “without inhibiting”. Also, in series [8] (3 mg nadolol, cohort D2), the “effect of nadolol on blood potassium decrease induced by Compound 03-5” value is given as “inhibited” and the “effect of nadolol on heart rate increase induced by Compound 03-5” value is on record as “inhibited”. The “effect of nadolol on peripheral effects of Compound 03-5 (heart rate, glucose, potassium, tachycardia, tremor, palpitations)” value in [8] (Cohort D1, nadolol 1 mg up to 40 mg, Compound 03-5 3-12 mg) is on record as “blocked”. Also, the “effect of nadolol on peripheral effects of Compound 03-5 (heart rate, glucose, potassium)” value in series [8] (Cohort D2, nadolol 3 mg, Compound 03-5 1-10 mg) was “blocked”. In series [8] (Cohort D2 and other cohorts, 1 mg nadolol pre-administered, Compound 03-5 oral up to 6 mg), the “effect of nadolol on heart rate increase, hyperglycemia and hypokalemia of Compound 03-5” value is reported as “substantially attenuated”. In addition, the “effect of nadolol on effects of Compound 03-5 on blood glucose and potassium, tachycardia, tremor and palpitations” value in series [8] (pre-administration of 1 mg nadolol, earlier cohorts) is “attenuation”.

Turning to `CC(C)(C)NCC(O)c1ccc(O)c(CO)c1` (centres unmarked) [salbutamol], in series [3], the “effect on VVLT / number of words recalled correctly” value is given as “improvements in cognition; also recorded: positive effects”.

As for `CC(C)(C)NC[C@H](O)c1cccc(C#N)n1` [Compound 03-5, (S)-6-(2-(tert-butylamino)-1-hydroxyethyl)picolinonitrile], the “cerebral blood flow from baseline (precentral gyrus, hippocampus, thalamus, amygdala)” value in series [9] is given as “robust, global increases”. Moreover, the “cognition, performance in CANTAB battery” value in series [7] (Cohort D2, Compound 03-5 1, 3 and 10 mg on Days 1, 2, 3 with 3 mg nadolol, healthy adults 55-75 years) is listed as “Improvements in cognition; also recorded: improvements in performance”. For the same compound, the “mean maximum increase in heart rate” value in series [8] (6 mg Compound 03-5 after pre-administration of 1 mg nadolol) came out at 7 beats per minute. In [8] (setting [10]), the blood potassium concentrations entry is listed as “dose-dependent decreases” and the “heart rate, change from baseline (triplicate ECG)” value is “dose-dependent increases”.

Take `CC(C)NCC(O)COc1cccc2[nH]ccc12` (centres unmarked) [pindolol]: the “cerebral blood flow measured by MRI-ASL (FIG. 2)” value in series [1] is “lack of increase”.
